This is an account of results in ChEMBL document CHEMBL1909046, “DrugMatrix in vitro pharmacology data”.

Chain of Adenosine receptor A2a (P29274 whole entry): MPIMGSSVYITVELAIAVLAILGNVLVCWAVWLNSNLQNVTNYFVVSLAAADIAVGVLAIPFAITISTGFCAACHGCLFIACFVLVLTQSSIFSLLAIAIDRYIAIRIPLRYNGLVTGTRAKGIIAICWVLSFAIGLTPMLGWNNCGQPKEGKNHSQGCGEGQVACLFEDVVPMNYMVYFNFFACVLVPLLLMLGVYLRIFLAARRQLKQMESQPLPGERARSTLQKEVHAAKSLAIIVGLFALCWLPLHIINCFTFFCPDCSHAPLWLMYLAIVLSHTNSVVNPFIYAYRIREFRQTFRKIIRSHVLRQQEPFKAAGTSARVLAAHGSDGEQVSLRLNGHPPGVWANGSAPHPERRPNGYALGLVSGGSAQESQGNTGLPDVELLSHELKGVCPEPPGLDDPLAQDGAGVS

Tested on in one experiment: not listed separately
Put plainly: DRUGMATRIX: Atrial Natriuretic Factor (ANF) radioligand binding (ligand: [125I] ANF (rat)). The settings on record: Not Active = under 50% inhibition at 10 µM. The class given is cell membranes, Cavia porcellus, Dunkin-Hartley, Adrenal gland, Membrane.
Take COBALT(II) ACETYLACETONATE: the IC50 entry was “Not Active” and the Ki result is “Not Active”.
Consider INSULIN HUMAN, for which the IC50 result is on record as “Not Active” and the Ki result is “Not Active”.
POLYVINYL ALCOHOL: the IC50 entry is reported as “Not Active” and the Ki result is recorded as “Not Active”.

Tested on in a further experiment: not listed separately
As to the kind of experiment: DRUGMATRIX: Interleukin IL-1 radioligand binding (ligand: [125I] interleukin 1beta). As to conditions: nih3t3; Not Active = under 50% inhibition at 10 µM. The class given is cell membranes, Membrane.
Consider COBALT(II) ACETYLACETONATE, for which the IC50 result is “Not Active” and the Ki entry is “Not Active”.
Consider INSULIN HUMAN, for which the IC50 entry is “Not Active” and the Ki result is recorded as “Not Active”.
As for POLYVINYL ALCOHOL, the IC50 result is recorded as “Not Active” and the Ki result is given as “Not Active”.

A further experiment addresses Adenosine receptor A2a (Homo sapiens, UniProt P29274). As to the kind of experiment: DRUGMATRIX: Adenosine A2A radioligand binding (ligand: […]). The class given is cell membranes, HEK293, Membrane. As to conditions: hek293; Not Active = under 50% inhibition at 10 µM.
In the case of COBALT(II) ACETYLACETONATE, the IC50 entry is “Not Active” and the Ki entry is reported as “Not Active”.
In the case of INSULIN HUMAN, the IC50 entry is reported as “Not Active” and the Ki result is “Not Active”.
With POLYVINYL ALCOHOL, the IC50 result is “Not Active” and the Ki entry is on record as “Not Active”.

Tested on in a further experiment: not listed separately
As to the kind of experiment: DRUGMATRIX: Calcium Channel Type L, Benzothiazepine radioligand binding (ligand: [3H] Diltiazem). The class given is cell membranes, Rattus norvegicus, Wistar, Brain, Membrane. The settings on record: Not Active = under 50% inhibition at 10 µM.
With COBALT(II) ACETYLACETONATE, the IC50 entry is listed as “Not Active” and the Ki result is “Not Active”.
Consider INSULIN HUMAN, for which the IC50 result is “Not Active” and the Ki entry was “Not Active”.
Take POLYVINYL ALCOHOL: the IC50 entry was “Not Active” and the Ki result is reported as “Not Active”.

The next experiment has as its target T1, 3-hydroxy-3-methylglutaryl-coenzyme A reductase (Homo sapiens, UniProt P04035).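 Note: enzyme inhibition assay of HMG-CoA reductase using radiolabeled [14C]HMG-CoA as substrate; in other assays of this panel Not Active means under 50% inhibition at 10 µM.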
T1 sequence (P04035 whole entry): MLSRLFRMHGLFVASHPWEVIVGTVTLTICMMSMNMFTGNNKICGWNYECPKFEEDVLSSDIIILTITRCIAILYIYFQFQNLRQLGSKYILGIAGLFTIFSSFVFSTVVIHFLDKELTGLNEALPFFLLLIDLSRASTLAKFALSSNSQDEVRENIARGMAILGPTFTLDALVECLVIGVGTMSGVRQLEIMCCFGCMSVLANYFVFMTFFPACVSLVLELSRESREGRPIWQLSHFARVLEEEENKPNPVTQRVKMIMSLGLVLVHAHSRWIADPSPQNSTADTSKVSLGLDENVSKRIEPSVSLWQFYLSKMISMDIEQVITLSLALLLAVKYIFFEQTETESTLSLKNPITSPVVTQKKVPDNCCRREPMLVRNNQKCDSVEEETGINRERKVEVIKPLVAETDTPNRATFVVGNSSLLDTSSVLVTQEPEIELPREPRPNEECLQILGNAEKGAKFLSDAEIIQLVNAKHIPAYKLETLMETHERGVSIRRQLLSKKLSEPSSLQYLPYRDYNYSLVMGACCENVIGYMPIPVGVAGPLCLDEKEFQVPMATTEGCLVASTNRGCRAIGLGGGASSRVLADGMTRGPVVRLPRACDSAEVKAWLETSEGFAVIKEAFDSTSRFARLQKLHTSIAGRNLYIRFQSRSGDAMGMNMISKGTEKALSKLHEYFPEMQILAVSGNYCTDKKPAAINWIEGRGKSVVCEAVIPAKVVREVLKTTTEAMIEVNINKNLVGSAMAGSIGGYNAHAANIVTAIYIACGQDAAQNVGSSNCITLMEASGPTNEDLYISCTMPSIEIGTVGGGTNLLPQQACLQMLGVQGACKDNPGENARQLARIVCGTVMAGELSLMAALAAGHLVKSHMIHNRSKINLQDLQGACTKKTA
Also on record: species or system Escherichia coli.
Details: not given
COBALT(II) ACETYLACETONATE: the IC50 entry is listed as “Not Active” and the Ki entry was “Not Active”.
For the substance INSULIN HUMAN, the IC50 result is given as “Not Active” and the Ki entry is “Not Active”.
For POLYVINYL ALCOHOL, the IC50 entry is “Not Active” and the Ki result is listed as “Not Active”.

A further experiment addresses T2, Interstitial collagenase (Homo sapiens, UniProt P03956).
T2 sequence (P03956 whole entry): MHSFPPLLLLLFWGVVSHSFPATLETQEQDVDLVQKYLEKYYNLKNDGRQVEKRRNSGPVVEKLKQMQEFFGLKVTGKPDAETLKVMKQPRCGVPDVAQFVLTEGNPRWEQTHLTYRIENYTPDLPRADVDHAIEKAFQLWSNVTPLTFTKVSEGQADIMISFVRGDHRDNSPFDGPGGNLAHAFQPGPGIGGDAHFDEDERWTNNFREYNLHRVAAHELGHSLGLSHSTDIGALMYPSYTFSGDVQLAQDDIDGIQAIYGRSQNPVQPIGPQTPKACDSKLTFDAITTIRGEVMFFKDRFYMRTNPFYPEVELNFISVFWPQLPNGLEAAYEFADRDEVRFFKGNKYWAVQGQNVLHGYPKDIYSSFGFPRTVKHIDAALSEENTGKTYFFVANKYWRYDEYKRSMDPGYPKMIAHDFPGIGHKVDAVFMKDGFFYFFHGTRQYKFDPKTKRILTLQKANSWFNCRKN
The format is tissue-based, Rheumatoid synovial fibroblasts.
Details: not given
As to COBALT(II) ACETYLACETONATE, the IC50 entry is listed as “Not Active” and the Ki entry is listed as “Not Active”.
As to INSULIN HUMAN, the IC50 entry was “Not Active” and the Ki result is on record as “Not Active”.
POLYVINYL ALCOHOL: the IC50 entry is given as “Not Active” and the Ki entry was “Not Active”.

Another experiment deals with T3, Alpha-1A adrenergic receptor (Rattus norvegicus, UniProt P43140).
T3 sequence (P43140 whole entry): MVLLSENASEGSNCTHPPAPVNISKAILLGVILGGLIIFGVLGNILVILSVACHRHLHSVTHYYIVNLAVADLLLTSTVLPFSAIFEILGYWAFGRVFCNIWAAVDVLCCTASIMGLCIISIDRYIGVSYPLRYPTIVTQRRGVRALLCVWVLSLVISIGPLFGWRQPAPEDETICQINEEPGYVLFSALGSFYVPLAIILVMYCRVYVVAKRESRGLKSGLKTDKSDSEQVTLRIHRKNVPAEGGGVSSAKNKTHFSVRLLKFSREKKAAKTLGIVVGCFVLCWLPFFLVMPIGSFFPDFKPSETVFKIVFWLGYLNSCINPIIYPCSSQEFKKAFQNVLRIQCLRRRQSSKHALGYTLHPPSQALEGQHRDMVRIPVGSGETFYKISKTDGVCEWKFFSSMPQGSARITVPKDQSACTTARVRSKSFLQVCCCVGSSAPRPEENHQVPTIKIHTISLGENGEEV
Put plainly: DRUGMATRIX: Alpha-1A adrenergic receptor radioligand binding (ligand: prazosin). The class given is cell membranes, Wistar, Submaxillary gland, Membrane. The settings on record: Not Active = under 50% inhibition at 10 µM.
As to COBALT(II) ACETYLACETONATE, the IC50 result is listed as “Not Active” and the Ki result was “Not Active”.
Regarding INSULIN HUMAN, the IC50 entry is reported as “Not Active” and the Ki entry is listed as “Not Active”.
With POLYVINYL ALCOHOL, the IC50 entry was “Not Active” and the Ki entry was “Not Active”.
